# System: tumor cell strains (colon cancer, pancreatic cancer, esophageal squamous carcinoma, gastric cancer, glioma)
# Assay: Summary of in-vitro proliferation inhibition on tumor cell strains (Examples 19-21)
# Type: cell-based, human
# Procedure: A part of the compounds prepared in the examples of the present disclosure were subjected to a tumor cell proliferation inhibition test by using a CCK-8 method. A cell line HCT116 (human colon carcinoma cells) and SW1990 (human pancreatic carcinoma cells) were purchased from Shanghai Meixuan Technology Co., Ltd. Samples (a part of the compounds prepared in the examples) were dissolved in DMSO (Merck), prepared into a concentration of 10 mM, and finally triply diluted in DMEM or McCoy's 5A 1640 medium to 8 concentration gradients. A cell culture solution was collected when a cell culture met a test requirement, 10 μL of the cell culture solution was uniformly coated on a cell counting plate, cells were counted for 3 times under a microscope, and a cell density was calculated by taking an average value; and a 96-well plate (Corning, #3599) was taken, 200 μL of the cell culture solution was added into each well for cell inoculation at a cell concentration of 6×10^3 cells per well, and the inoculated 96-well plate was incubated in a cell incubator containing 5% CO2 at 37° C. for 24 h. An old culture medium was removed by suction, 200 μL of the triply diluted sample DMEM or McCoy's 5A 1640 medium at an initial concentration of 10 μmol/L was added to each well, the DMSO content was controlled to be 1%, three duplicate wells were set, PBS was used as a blank control, and the plate was incubated in the incubator for 72 h. The original DMEM or McCoy's 5A 1640 medium in the 96-well plate and a PBS buffer in a final row were sucked out, a prepared CCK-8 solution (90% DMEM or McCoy's 5A 1640 medium+10% CCK-8) was added, the mixture was incubated in an incubator, and an absorbance was read by using a Biotek microplate reader. Cell growth inhibition rate IC %=(blank control well OD value−administration well OD value)/blank control well OD value×100%.
# In-vitro activity test: 100 μL of a cell suspension at a concentration of 4-5×10^4/mL was added to each well of a 96-well plate, and placed in a 5% CO2 incubator at 37° C. After 24 h, a sample solution was added at 10 μL/well, double duplicate wells were set, and a reaction was performed at 37° C. with 5% CO2 for 72 h. 20 μL of 5 mg/ml of an MTT solution was added into each well and reacted for 4 h, a dissolving solution was added at 100 μL/well, the mixture was placed in an incubator, and after dissolution, an OD value at 570 nm was measured with a full-wavelength multifunctional microplate reader. An inhibition rate (IR) and a median inhibitory concentration (IC50) were calculated by using an Excel software.
# A part of the compounds prepared in the examples of the present disclosure were subjected to a tumor cell proliferation inhibition test by using a CCK-8 method. Cell lines HCT116 (human colon cancer cells), MGC803 (human gastric cancer cells), and MIA PACA-2 (human pancreatic cancer cells) were purchased from Shanghai Meixuan Technology Co., Ltd. Samples (a part of the compounds prepared in the examples) were dissolved in DMSO (Merck), prepared into a concentration of 10 mM, and finally triply diluted in DMEM or McCoy's 5A 1640 medium to 8 concentration gradients. A cell culture solution was collected when a cell culture met a test requirement, 10 μL of the cell culture solution was uniformly coated on a cell counting plate, cells were counted for 3 times under a microscope, and a cell density was calculated by taking an average value; and a 96-well plate (Corning, #3599) was taken, 200 μL of the cell culture solution was added into each well for cell inoculation at a cell concentration of 6×10^3 cells per well, and the inoculated 96-well plate was incubated in a cell incubator containing 5% CO2 at 37° C. for 24 h. […]
compound,measurement,value
COc1cc(C(=O)NCCOCCOCCOCCOCCC(=O)N[C@@H](C(=O)N[C@@H](CCCNC(N)=O)C(=O)Nc2ccc(COC(=O)N3CCN(C(=O)O[C@H]4CC[C@@]5(C)[C@H](CC[C@@H]6[C@@H]5[C@H](O)C(=O)[C@]5(C)[C@@H](c7ccc(=O)oc7)CC[C@]65O)C4)CC3)cc2)C(C)C)ccc1NC(=O)[C@@H]1N[C@@H](CC(C)(C)C)[C@](C#N)(c2ccc(Cl)cc2F)[C@H]1c1cccc(Cl)c1F [Compound I-1],Proliferation inhibition activities IC50 on most tumor cell strains (in words),between several to hundreds of nanomoles
